# Test results: ChEMBL document CHEMBL1144308, “Novel CDK inhibition profiles of structurally varied 1-aza-9-oxafluorenes” (Bioorg Med Chem Lett, 2005); call rule not given here
# Columns and labels:
# Format in all cases: protein-complex assay
# [1] = molecular target: Cyclin-dependent kinase 1/cyclin B1 (Homo sapiens, UniProt P06493); assay: Inhibitory concentration tested against Cyclin dependant kinase 1-cyclinB
# [2] = molecular target: T1, Cyclin-dependent kinase 4/cyclin D1 (Homo sapiens, UniProt P11802); assay: Inhibitory concentration tested against Cyclin dependant kinase 4-cyclinD1; ND: not determined
# T1 sequence (P11802 whole entry): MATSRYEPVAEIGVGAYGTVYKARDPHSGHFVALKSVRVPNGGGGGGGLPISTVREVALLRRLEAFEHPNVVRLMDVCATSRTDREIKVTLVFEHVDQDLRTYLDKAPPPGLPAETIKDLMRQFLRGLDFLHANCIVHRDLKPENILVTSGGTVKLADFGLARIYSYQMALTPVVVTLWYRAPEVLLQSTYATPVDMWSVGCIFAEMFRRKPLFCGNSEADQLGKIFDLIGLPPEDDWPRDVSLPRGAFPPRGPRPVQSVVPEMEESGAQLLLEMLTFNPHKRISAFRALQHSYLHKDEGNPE
# T1 sequence (P24385 whole entry, further chain): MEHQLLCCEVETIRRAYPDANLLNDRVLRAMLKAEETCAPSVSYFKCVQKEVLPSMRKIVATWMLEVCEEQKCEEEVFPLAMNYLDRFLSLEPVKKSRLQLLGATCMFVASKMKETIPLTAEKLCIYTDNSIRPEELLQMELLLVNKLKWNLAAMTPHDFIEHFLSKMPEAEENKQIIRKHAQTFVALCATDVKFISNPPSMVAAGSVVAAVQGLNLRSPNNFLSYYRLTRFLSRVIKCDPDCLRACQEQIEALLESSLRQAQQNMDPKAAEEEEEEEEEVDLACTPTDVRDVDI
# [3] = molecular target: T2, Cyclin-dependent kinase 2/cyclin E1 (Homo sapiens, UniProt P24941); assay: Inhibitory concentration tested against Cyclin dependant kinase 2-cyclinE; ND: not determined
# [4] = molecular target: Cyclin-dependent kinase 5/CDK5 activator 1 (Homo sapiens, UniProt Q00535+Q15078); assay: Inhibitory concentration tested against Cyclin-dependent kinase 5; NA: not active
# Cyclin-dependent kinase 5/CDK5 activator 1 (Homo sapiens, UniProt Q00535+Q15078), sequence (Q00535 whole entry): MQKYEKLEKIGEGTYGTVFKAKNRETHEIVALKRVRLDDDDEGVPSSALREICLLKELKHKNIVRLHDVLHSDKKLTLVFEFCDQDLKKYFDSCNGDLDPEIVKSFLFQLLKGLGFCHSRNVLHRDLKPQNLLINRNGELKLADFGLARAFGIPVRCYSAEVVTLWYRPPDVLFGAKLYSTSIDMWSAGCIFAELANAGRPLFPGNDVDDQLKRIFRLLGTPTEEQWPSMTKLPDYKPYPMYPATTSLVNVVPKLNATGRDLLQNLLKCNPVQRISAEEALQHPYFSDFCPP
# Cyclin-dependent kinase 5/CDK5 activator 1 (Homo sapiens, UniProt Q00535+Q15078), sequence (Q15078 whole entry): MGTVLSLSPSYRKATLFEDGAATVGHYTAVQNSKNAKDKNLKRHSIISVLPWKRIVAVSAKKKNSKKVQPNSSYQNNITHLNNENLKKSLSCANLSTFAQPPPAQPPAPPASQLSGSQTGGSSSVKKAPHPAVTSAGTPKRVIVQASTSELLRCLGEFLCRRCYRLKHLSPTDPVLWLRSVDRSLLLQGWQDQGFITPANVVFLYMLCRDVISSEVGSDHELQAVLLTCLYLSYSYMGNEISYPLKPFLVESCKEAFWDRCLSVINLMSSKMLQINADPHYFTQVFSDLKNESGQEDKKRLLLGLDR
# [5] = molecular target: T2, Cyclin-dependent kinase 2/cyclin E1; assay: Inhibitory concentration tested against Cyclin dependant kinase 2-cyclinE
# [6] = molecular target: T1, Cyclin-dependent kinase 4/cyclin D1; assay: Inhibitory concentration tested against Cyclin dependant kinase 4-cyclinD1
# [7] = molecular target: Cyclin-dependent kinase 5/CDK5 activator 1 (Homo sapiens, UniProt Q00535); assay: Inhibitory concentration tested against Cyclin-dependent kinase 5
# Cyclin-dependent kinase 5/CDK5 activator 1 (Homo sapiens, UniProt Q00535), sequence (Q00535 whole entry): as the sequence (Q00535 whole entry) above
# Cyclin-dependent kinase 5/CDK5 activator 1 (Homo sapiens, UniProt Q00535), sequence (Q15078 whole entry, further chain): as the sequence (Q15078 whole entry) above
# Cyclin-dependent kinase 1/cyclin B1, sequence (P06493 whole entry): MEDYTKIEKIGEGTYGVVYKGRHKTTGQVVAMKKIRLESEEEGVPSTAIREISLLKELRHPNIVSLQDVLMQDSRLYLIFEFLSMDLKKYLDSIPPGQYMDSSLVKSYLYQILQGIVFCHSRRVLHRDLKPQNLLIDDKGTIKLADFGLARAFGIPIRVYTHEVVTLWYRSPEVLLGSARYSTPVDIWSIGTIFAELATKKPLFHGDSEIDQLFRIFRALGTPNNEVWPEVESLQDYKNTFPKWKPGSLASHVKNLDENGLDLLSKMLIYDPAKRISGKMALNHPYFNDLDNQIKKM
# Cyclin-dependent kinase 1/cyclin B1, sequence (P14635 whole entry, further chain): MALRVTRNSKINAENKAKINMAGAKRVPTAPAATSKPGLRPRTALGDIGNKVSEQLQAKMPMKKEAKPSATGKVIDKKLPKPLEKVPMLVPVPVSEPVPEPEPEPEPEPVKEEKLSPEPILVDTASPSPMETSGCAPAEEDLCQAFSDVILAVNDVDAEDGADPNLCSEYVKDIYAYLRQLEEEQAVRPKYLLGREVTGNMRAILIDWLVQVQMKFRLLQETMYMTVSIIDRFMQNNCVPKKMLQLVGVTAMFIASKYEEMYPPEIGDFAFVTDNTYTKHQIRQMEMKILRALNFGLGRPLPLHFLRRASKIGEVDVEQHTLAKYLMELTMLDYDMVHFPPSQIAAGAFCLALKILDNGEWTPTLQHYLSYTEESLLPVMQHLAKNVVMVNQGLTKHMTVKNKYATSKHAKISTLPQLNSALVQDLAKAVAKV
Structure (SMILES),IC50 [4],IC50 [5],IC50 [6],IC50 [1],IC50 [2],IC50 [3],IC50 [7]
CC(=O)c1cnc2oc3ccc(O)cc3c2c1-c1ccccc1,,,,4.2 µM,> 100 µM,> 100 µM,
COc1cnc2oc3ccc(O)cc3c2c1-c1ccccc1,,80 µM,> 100 µM,64.3 µM,,,6.3 µM
Oc1ccc2oc3ncc(Cl)c(-c4ccccc4)c3c2c1,Not Active,> 100 µM,> 100 µM,> 100 µM,,,
Oc1ccc2oc3ncc(Br)c(-c4ccccc4)c3c2c1,Not Active,3.2 µM,28.7 µM,70.7 µM,,,

# More lines, main results first:
IC50 [4],IC50 [5],IC50 [6],Structure (SMILES),IC50 [1],IC50 [2],IC50 [3],IC50 [7]
Not Active,> 100 µM,> 100 µM,Cc1cnc2oc3ccc(O)cc3c2c1-c1ccccc1,> 100 µM,,,
,> 100 µM,> 100 µM,CCOc1cnc2oc3ccc(O)cc3c2c1-c1ccccc1,> 100 µM,,,5.9 µM
